Consider 19 compounds from PubChem BioAssay (NCI).

Several values for one entry are separate records, joined by “and”; a condition that tells them apart may be missing. Identical values can stand only once.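 Dose response: 5 concentrations. Exposure: 48 h. Format: 96-well plates. Endpoint: linear interpolation; highest concentration if not reached. GI50 is the concentration that inhibits growth by half. TGI: total growth inhibition.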 Where only a bound is given, the exact number is not on record here.

Test systems include SNB-78 CNS; DLD-1 colon; HOP-18 NSCLC; DMS 114 small cell lung; LXFL 529 NSCLC; M19-MEL melanoma; MDA-MB-435; DU-145 prostate; MDA-MB-231 breast; T-47D breast; MCF7 breast; BT-549 breast.
Common to all, as to test: NCI-60 cell line screen, 48 h

For `CCN1N=CSC12C(=O)N(c1ccccc1)C(=O)N2c1ccccc1` (stereo not drawn), the TGI with SNB-78 CNS, in the test with DLD-1 colon, in the test with HOP-18 NSCLC, in the test on DMS 114 small cell lung and in the test with LXFL 529 NSCLC was over 100 µM throughout.

Consider `Clc1ccc(C2=NN(c3ccccc3)C3c4cc(Br)ccc4OCC23)cc1` (stereo not drawn), for which the TGI with SNB-78 CNS, in the test on DLD-1 colon, with HOP-18 NSCLC, with DMS 114 small cell lung, in the test on M19-MEL melanoma and with LXFL 529 NSCLC was over 100 µM each time.

Turning to `COc1ccc(Nc2nc3c(N)cc(C(F)(F)F)cc3nc2-c2ccccc2)cc1`, the TGI in the test with SNB-78 CNS, in the test on DLD-1 colon, in the test with HOP-18 NSCLC, with DMS 114 small cell lung, in the test on M19-MEL melanoma and in the test on LXFL 529 NSCLC was over 100 µM in each case.

Consider `COC1C2c3ccccc3C(C#N)(Cc3ccc4c(c32)OCO4)N1C(=O)c1ccccc1` (stereo not drawn), for which the TGI with SNB-78 CNS, in the test with DLD-1 colon, with HOP-18 NSCLC, in the test on DMS 114 small cell lung and with LXFL 529 NSCLC was over 100 µM in each case.

As for `CN(C)CC1CCCC(CN(C)C)C1=O` (stereo not drawn), the TGI in the test on SNB-78 CNS is 10.3 µM; in the test on DLD-1 colon, 4.14 µM; in the test on HOP-18 NSCLC, 3.32 µM; in the test on MDA-MB-435, 39.1 µM and 23.8 µM; in the test with DU-145 prostate it was 29.4 µM; with MDA-MB-231 breast, 13 µM and 31.2 µM. Also, the TGI is 3.87 µM in the test with DMS 114 small cell lung; 4.23 µM and 3.38 µM in the test on T-47D breast; 6 µM and > 41.7 µM in the test with MCF7 breast; 10.7 µM and 38 µM with BT-549 breast; 7.24 µM in the test with M19-MEL melanoma; 0.998 µM in the test on LXFL 529 NSCLC. Besides, the GI50 in the test with MDA-MB-435 is 19.6 µM and 8.54 µM; in the test with MDA-MB-231 breast, 3.9 µM and 16 µM; in the test with MCF7 breast, 0.575 µM and 3.45 µM; in the test on BT-549 breast it was 3.24 µM and 19.4 µM.

With `Fc1cccc(C=NC23CC4CC(CC(C4)C2)C3)c1`, the TGI in the test on SNB-78 CNS, in the test on DLD-1 colon, with HOP-18 NSCLC, in the test on DMS 114 small cell lung, in the test on M19-MEL melanoma and in the test on LXFL 529 NSCLC was over 100 µM each time.

For `C=C1C(=O)C23C(O)C1CCC2C12CO[C@]3(O)[C@@H](O)C1C(C)(C)CCC2O` (stereo partly drawn), the TGI in the test on SNB-78 CNS worked out at 32.8 µM; with DLD-1 colon, 33.8 µM; in the test with HOP-18 NSCLC, 25.5 µM; with DMS 114 small cell lung it was 20.7 µM; in the test with M19-MEL melanoma, 23.7 µM; in the test with LXFL 529 NSCLC it was 6.03 µM.

Regarding `CCOc1ccc(NC(=O)/C(=C/c2ccccc2)C(C)=O)cc1`, the TGI worked out at 38.8 µM with SNB-78 CNS; 24 µM with DLD-1 colon; 25.5 µM with HOP-18 NSCLC; 26.9 µM in the test on DMS 114 small cell lung; 27.7 µM with M19-MEL melanoma.

Turning to `COc1ccccc1NS(=O)(=O)c1cc(C(C)(C)C)ccc1OCCOc1ccc(C(C)(C)C)cc1S(=O)(=O)Nc1ccccc1OC`, the TGI in the test with SNB-78 CNS, in the test on DLD-1 colon, in the test on HOP-18 NSCLC, in the test with DMS 114 small cell lung and in the test with M19-MEL melanoma was over 100 µM throughout.

As to `COc1ccc(Br)c(CCCCC(=O)O)c1`, the TGI in the test on SNB-78 CNS, with DLD-1 colon, in the test on HOP-18 NSCLC, with DMS 114 small cell lung, in the test on M19-MEL melanoma and with LXFL 529 NSCLC was over 100 µM in each case.

Regarding `Cc1ccc(NC(=O)CCC(=O)C2CC(=O)CCC2=O)cc1C` (stereo not drawn), the TGI in the test on SNB-78 CNS, in the test on DLD-1 colon, with HOP-18 NSCLC, in the test on DMS 114 small cell lung, in the test on M19-MEL melanoma and in the test on LXFL 529 NSCLC was over 100 µM throughout.

Consider `CC1(C)CC[C@]2(C(=O)O)CCC3(C)C(=CCC4[C@@]5(C)CC[C@H](OC6OCC(O)C(O)C6OC6OC(CO)C(O)C(O)C6O)C(C)(C)C5CC[C@]43C)C2C1` (stereo partly drawn), for which the TGI was determined as 5.04 µM in the test with SNB-78 CNS; 22.7 µM in the test on DLD-1 colon; 3.48 µM in the test on HOP-18 NSCLC; 3.62 µM in the test on DMS 114 small cell lung; 3.46 µM in the test on M19-MEL melanoma; 3.39 µM in the test on LXFL 529 NSCLC.

As for `Nc1ccc(C(=O)O)c2[nH]c3ccccc3c(=O)c12`, the TGI with SNB-78 CNS, in the test with DLD-1 colon, in the test with HOP-18 NSCLC, with DMS 114 small cell lung, with M19-MEL melanoma and in the test on LXFL 529 NSCLC was over 100 µM each time.

As to `O=C(NCCS(=O)(=O)N1C(=O)C2CCCN2C(=O)[C@@H]1Cc1ccccc1)OCc1ccccc1` (stereo partly drawn), the TGI in the test on SNB-78 CNS was over 100 µM; in the test with DLD-1 colon, over 100 µM; in the test on HOP-18 NSCLC it was over 100 µM; in the test with DMS 114 small cell lung, 89.2 µM; in the test on LXFL 529 NSCLC, over 100 µM.

With `COc1cc(C2c3cc4c(cc3[C@@H](OCCN)[C@H]3COC(=O)C23)OCO4)cc(OC)c1O` (stereo partly drawn), the TGI in the test on SNB-78 CNS is over 58.9 µM; with DLD-1 colon, 6.76 µM; with HOP-18 NSCLC it was over 100 µM; with DMS 114 small cell lung it was 0.162 µM; with M19-MEL melanoma it was 2.14 µM; in the test with LXFL 529 NSCLC, 7.75 µM.

Turning to `COC(=O)[C@@]12C3=NO[C@]1(C(=O)OC)C(O[Si](C)(C)C(C)(C)C)C1OC(C)(C)OC1[C@@H]2[C@@H](OCc1ccccc1)CC3` (stereo partly drawn), the TGI with DLD-1 colon, in the test with HOP-18 NSCLC, in the test on DMS 114 small cell lung, in the test with M19-MEL melanoma and in the test with LXFL 529 NSCLC was over 100 µM each time.

Consider `Cc1cc(C)c2c(c1C)CN1CN2Cc2c(C)c(C)cc(C)c21`, for which the TGI in the test with SNB-78 CNS is over 100 µM; with DLD-1 colon it was over 100 µM; with HOP-18 NSCLC, over 100 µM; with DMS 114 small cell lung it was 44.1 µM; in the test on M19-MEL melanoma it was over 100 µM; in the test on LXFL 529 NSCLC, over 100 µM.

For `CCN1CCC(O)(c2ccccc2)C(C(=O)c2ccccc2)C1` (stereo not drawn), the TGI in the test with SNB-78 CNS was 54.1 µM; with DLD-1 colon, 37 µM; in the test on HOP-18 NSCLC, 28 µM; in the test on DMS 114 small cell lung, over 67.4 µM; in the test with M19-MEL melanoma it was over 63.1 µM; with LXFL 529 NSCLC it was 29.4 µM.

As to `Cc1ccc(C)c(NC(=O)CCC(=O)CC(=O)C(C)(C)C)c1`, the TGI in the test with SNB-78 CNS, in the test on DLD-1 colon, with HOP-18 NSCLC, in the test with DMS 114 small cell lung, in the test with M19-MEL melanoma and with LXFL 529 NSCLC was over 100 µM in each case.
